In a melting point compilation (Tetko et al.; mined from patent text by program, amines drawn as free bases though some values may be those of a salt) one finds melting point data, which are given here for 64 compounds.

Some results are limits rather than exact numbers.

Take `CCC1(C)CN(c2c(F)c(N)c3c(=O)c(C(=O)O)cn(C4CC4)c3c2OC)CCC1N` (centres undefined): the melting point (commonly the temperature of the solid-liquid transition) was 210 °C.

Compound `Cc1cccc(C)c1N1C(=N)N(c2cccc(C(F)(F)F)c2)CC1C` (centres undefined) yielded a melting point of 95 to 98 °C.

As for `O=C(O)c1ccc2cn[nH]c2c1`, the melting point is > 250 °C.

Compound `CSc1ccc(NC(=O)N(O)C2CCCCC2)cc1` yielded a melting point of 151 to 153 °C.

As to `O=C1CC(c2cccc(-c3nc(C(=O)NCCO)co3)c2)=Nc2ccc(-n3cccc3)cc2N1`, the melting point was 242 to 244 °C.

In turn, `CC1(C)CC(=O)C2=C(C1)NC1=C(C(=O)CC(C)(C)C1)C2c1cccc(Oc2ccccc2)c1` registered a melting point of 205 to 207 °C.

Compound `CCC(CO)(OC)c1ccc(-c2ccc(OC)cc2)cc1` (centres undefined) registered a melting point of 108 to 109 °C.

As for `C[Si](C)(C)C#Cc1c2ccccc2c2ccc3c(C#C[Si](C)(C)C)c4ccccc4c4ccc1c2c34`, the melting point fell in the range of 286 to 288 °C.

Turning to `CC(O)/C=C/c1ncn2c1CN(C)C(=O)c1c(Cl)cccc1-2` (centres undefined), the melting point fell in the range of 232 to 233 °C.

As for `CCOC(CNC(=O)N(N=Cc1ccccc1)c1cc(Cl)c(Cc2ccc(Cl)cc2)c(Cl)c1)OCC`, the melting point lay in the range of 138 to 139 °C.

As for `C=C1C(=O)N[C@@H](Cc2ccccc2)C(=O)N1Cc1ccccc1`, the melting point was in the range of 124 to 127 °C.

On to `CCC(=O)NC1C=CCCCC1` (centres undefined), for which the melting point was found to be 84 °C.

Compound `O=c1[nH]cncc1Cc1cccnc1` yielded a melting point of 145 to 148 °C.

Compound `CN(C)S(=O)(=O)c1cccc2c1Sc1ccc(OCc3ccccc3)cc1N2CCCCl` returned a melting point of 124 to 126 °C.

`COC(=O)C1=Cc2cc(O)ccc2S(=O)(=O)CC1`: the melting point was in the range of 176 to 178 °C.

For the compound `CC(C)(C)c1cccc(Br)c1Oc1ccc(O)nn1`, the melting point was in the range of 255 to 257 °C.

Turning to `Cc1cc(-n2cncn2)c2cccc(OCc3c(Cl)ccc(S(=O)(=O)N4CCC[C@H]4C(=O)NCC4CCN(CC(=O)OC(C)(C)C)CC4)c3Cl)c2n1`, the melting point is 50 °C.

For the compound `COc1ccc(NS(=O)(=O)c2ccc(N)cc2OC)cc1`, the melting point fell in the range of 51 to 54 °C.

In turn, `O=C1c2ccccc2C(=O)N1CC(Br)(c1ccccc1)C(Br)Br` (centres undefined) had a melting point of 175 to 176 °C.

For `CCc1oc2ccccc2c1C(=O)c1ccc(OCC(=O)OC)cc1`, the melting point lay within 72 to 74 °C.

Regarding `CN1C(=O)c2[nH]c3ccccc3c2Oc2ccccc21`, the melting point lay in the range of 247 to 248 °C.

For the compound `C=CCCCn1nnc(-c2ccc3[nH]c(CCCC)nc(=O)c3c2)n1`, the melting point came out at 130 °C.

In turn, `C1=C2CCC=C2CCCCCCCCC1` gave a melting point of 97 to 102 °C.

In turn, `COc1ccc(-n2ncc(C(=O)N[C@H](C)[C@](O)(Cn3cncn3)c3ccc(F)cc3F)c2C)cc1` returned a melting point of 176 to 177 °C.

Turning to `OCCc1ccc(OCc2coc(/C=C/c3ccccc3)n2)cc1`, the melting point was in the range of 123 to 124 °C.

Compound `COC(=O)Cc1cccc(NC(=O)NC2c3cc(C#N)ccc3OC(C)(C)C2O)c1` (centres undefined) displayed a melting point of 72 to 75 °C.

Turning to `COC(=O)c1ccc(C(O)c2cccnc2)cc1` (centres undefined), the melting point turned out to be 151 °C.

Take `Cc1nc2cc(C(C)(C)C)c(O)cc2o1`: the melting point was 264 to 266 °C.

`Oc1cc(C(F)(F)F)ccc1I` displayed a melting point of 36 to 38 °C.

As to `CN1CCCC1=Cc1ccc(Br)cc1`, the melting point was 83 to 84 °C.

On to `CC(NS(=O)(=O)N1CCOCC1)P(=O)(c1ccccc1)c1ccccc1` (centres undefined), for which the melting point was in the range of 215 to 217 °C.

For `C[C@@H]1CCC[C@H](C)N1CCNC(=O)CN1CCCC1=O`, the melting point was 93 to 94.5 °C.

Take `O=C(NCC1(O)CCCCCC1)c1cc(-c2cccnc2N2CCC(C(=O)O)CC2)ccc1Cl`: the melting point lay in the range of 117 to 119 °C.

As for `Cn1c(=O)c(-c2c(Cl)cccc2Cl)cc2cnc(N)nc21`, the melting point was 235 to 237 °C.

The compound `COCOCc1nc(-c2ccccc2)oc1COc1ccc(OCc2nc(-c3ccccc3)oc2C)cc1` returned a melting point of 74 to 75 °C.

On to `CCC(=O)Nc1nc(CC(=O)N(C)c2ccc(Cl)cc2)cs1`, for which the melting point fell in the range of 153 to 155 °C.

`C=CCOc1nc2cc(OC)c(OC)cc2c2ncnn12` yielded a melting point of 189 to 191 °C.

Take `Cc1nc(-c2cccc([N+](=O)[O-])c2)sc1C(=O)O`: the melting point lay in the range of 235 to 236 °C.

`CCCc1nnc(-c2ccc(OC)cc2)s1` had a melting point of 54 °C.

`COC1(c2cccc(OCc3ccc(-n4ccnc4-c4ccccc4)cc3)c2)CCOCC1` displayed a melting point of 117 to 118 °C.

As to `CC(=O)SCC(Cc1ccccc1)C(=O)Nc1ccc(C(=O)O)c(Cl)c1` (centres undefined), the melting point lay in the range of 145 to 148 °C.

With `CC(C)(C)OC(=O)Nc1ccc(C#Cc2ccccc2F)cc1[N+](=O)[O-]`, the melting point fell in the range of 140 to 142 °C.

As to `CCCCOC(=O)c1ccc(OC(=O)c2ccc(C(=O)Oc3ccc(C(=O)OCCCC)cc3)cc2)cc1`, the melting point lay in the range of 128 to 131 °C.

For `O=C(Nc1ccc(F)nc1)C1CC1`, the melting point lay within 116 to 117 °C.

The compound `CCC(CC)(COc1ccc2ncnn2n1)CS(N)(=O)=O` came in with a melting point of 194 to 197 °C.

Compound `Cc1ccc(-c2ccc3c(c2)C=C(C(=O)N2CCC(NC(=O)C(F)(F)F)CC2)CCO3)cc1` gave a melting point of 189 to 192 °C.

Compound `CCOc1ccc2c(c1)C(C)(c1cc(N)ccc1Cl)C(=O)N2` (centres undefined) displayed a melting point of 166 °C.

For the compound `CCOC(=O)[C@H](Cc1cccc(C#N)c1)NS(=O)(=O)c1ccc2c(c1)CN(C(C)C)CC2`, the melting point was 110 °C.

For the compound `COc1cccc(COc2cncc(Cl)n2)c1`, the melting point was 111 to 113 °C.

Compound `O=C1C=CC(Cl)(C(=O)OC(c2ccccc2)c2ccccc2)O1` (centres undefined) yielded a melting point of 99 to 101 °C.

As for `O=C(Nc1ccc(Oc2ccnc(NCCN3CCCCC3)n2)c2ccccc12)c1cc(F)cc(N2CCOCC2)c1`, the melting point is 98 to 100 °C.

Compound `Cn1ncc(Cl)c(NCCCCl)c1=O` showed a melting point of 42 to 46 °C.

`COc1ccc(NC(=O)c2csc(Br)c2OC)cc1N1CCN(C)CC1` yielded a melting point of 120 to 122 °C.

Regarding `OCc1ccc(Cc2ccc3c(c2)OCO3)o1`, the melting point is 68 to 69 °C.

`CCOC(=O)c1cn(CCF)c2nc(N3CCC(N(C)C(C)=O)C3)c(F)cc2c1=O` (centres undefined) gave a melting point of 227 to 229 °C.

`Cc1ccc2c(c1)CN(C)C(=O)CC2`: the melting point fell in the range of 75 to 76 °C.

`COc1cc(-c2csc(NS(=O)(=O)c3ccccc3)n2)ccc1OCc1ccccc1` returned a melting point of 152 to 155 °C.

Turning to `CCOC(=O)c1ccc(CNC(=O)CI)cc1O`, the melting point lay in the range of 105 to 108 °C.

For the compound `CCn1ncc2c(ON=C(C)C)c(C(=O)c3ccc(Cl)cc3)cnc21`, the melting point fell in the range of 112 to 113 °C.

`CCC(COc1cccc(C(F)(F)F)c1)OC(=O)NCc1ccccc1` (centres undefined) registered a melting point of 73 to 74 °C.

For `COC(=O)c1cc(-c2ccc(-c3nccs3)cc2)n(-c2ccc(S(N)(=O)=O)cc2)n1`, the melting point fell in the range of 204 to 206 °C.

Consider `Cc1ccc(-c2csc(NS(=O)(=O)c3ccc(C)cc3)n2)cc1`, for which the melting point lay in the range of 186 to 189 °C.

`O=C(O)c1ccc(OC(F)F)c(OC2CCCC2)c1` displayed a melting point of 126 to 128 °C.

Regarding `CCOC(=O)c1ccnn1-c1c(Cl)cccc1Cl`, the melting point was 51 to 53 °C.
